Values of other authors as cited in US20060111343A1, “Oxcarbazepine dosage forms” (Glenmark Pharmaceuticals Limited, priority 2004, published 2006).

In the case of `NC(=O)N1c2ccccc2CC(=O)c2ccccc21` [Oxcarbazepine, 10,11-dihydro-10-oxo-5H-dibenzo[b,]azepine-5-carboxamide], the solubility in water is listed as “poor solubility in water”.
